In brackets after ≈: the same amount, converted by molar mass.
Assays:
Pseudomonas aeruginosa [1] = assay: Antibacterial activity against Pseudomonas aeruginosa ATCC27853 assessed as reduction in bacterial growth measured after 18 to 24 hrs by CLSI protocol based method; assay type: functional; settings: time 18-24 hrs
Escherichia coli [2] = assay: Potency index, ratio of CHIR-090 MIC to test compound MIC for antibacterial activity against Escherichia coli ATCC25922 assessed as reduction in bacterial growth measured after 18 to 24 hrs by CLSI protocol based method; assay type: functional; settings: time 18-24 hrs
Pseudomonas aeruginosa [3] = assay: Antibacterial activity against Pseudomonas aeruginosa clinical isolate PAE22-1 assessed as reduction in bacterial growth measured after 18 to 24 hrs by CLSI protocol based method; assay type: functional; settings: time 18-24 hrs
Klebsiella pneumoniae [4] = assay: Antibacterial activity against Klebsiella pneumoniae ATCC700603 assessed as reduction in bacterial growth measured after 18 to 24 hrs by CLSI protocol based method; assay type: functional; settings: time 18-24 hrs
Klebsiella pneumoniae [5] = assay: Antibacterial activity against Klebsiella pneumoniae clinical isolate KPN+22-1 assessed as reduction in bacterial growth measured after 18 to 24 hrs by CLSI protocol based method; assay type: functional; settings: time 18-24 hrs
Escherichia coli [6] = assay: Antibacterial activity against Escherichia coli ATCC25922 assessed as reduction in bacterial growth measured after 18 to 24 hrs by CLSI protocol based method; assay type: functional; settings: time 18-24 hrs
[7] = Metabolic stability in human liver microsomes assessed as half life at 1 uM preincubated for 5 mins followed by NADPH addition and measured after 5 to 60 mins by LC-MS analysis; assay type: ADME, Microsome; settings: liver microsomes, time 10-65 min
[8] = Intrinsic clearance in mouse; assay type: ADME, organism-based; settings: read-out: CLH
[9] = Metabolic stability in mouse liver microsomes assessed as half life at 1 uM preincubated for 5 mins followed by NADPH addition and measured after 5 to 60 mins by LC-MS analysis; assay type: ADME, Microsome; settings: liver microsomes, time 10-65 min
[10] = Metabolic stability in mouse liver microsomes assessed as intrinsic clearance at 1 uM preincubated for 5 mins followed by NADPH addition and measured after 5 to 60 mins by LC-MS analysis; assay type: ADME, Microsome; settings: liver microsomes, time 10-65 min, read-out: CLH
[11] = Metabolic stability in human liver microsomes assessed as intrinsic clearance at 1 uM preincubated for 5 mins followed by NADPH addition and measured after 5 to 60 mins by LC-MS analysis; assay type: ADME, Microsome; settings: time 10-65 min, read-out: CLH
[12] = Metabolic stability in rat liver microsomes assessed as intrinsic clearance at 1 uM preincubated for 5 mins followed by NADPH addition and measured after 5 to 60 mins by LC-MS analysis; assay type: ADME, Microsome; settings: liver microsomes, time 10-65 min, read-out: CLH
[13] = Intrinsic clearance in human; assay type: ADME; settings: read-out: CLH
[14] = Intrinsic clearance in rat; assay type: ADME; settings: read-out: CLH
[15] = Metabolic stability in rat liver microsomes assessed as half life at 1 uM preincubated for 5 mins followed by NADPH addition and measured after 5 to 60 mins by LC-MS analysis; assay type: ADME, Microsome; settings: liver microsomes, time 10-65 min

SMILES	MIC (Pseudomonas aeruginosa [1])	Ratio (Escherichia coli [2])	MIC (Pseudomonas aeruginosa [3])	MIC (Klebsiella pneumoniae [4])	MIC (Klebsiella pneumoniae [5])	MIC (Escherichia coli [6])	half-life at 1 µM [7]	CLint scaled [8]	half-life at 1 µM [9]	microsomal CLint at 1 µM [10]	microsomal CLint at 1 µM [11]	microsomal CLint at 1 µM [12]	CLint scaled [13]	CLint scaled [14]	half-life at 1 µM [15]
C[C@@H](O)[C@H](NC(=O)c1ccc(C#Cc2ccc(/C=N/N3CCSCC3)cc2)cc1)C(=O)NO	> 64 µg/mL	2	8 µg/mL (≈ 17.1 µM)	> 64 µg/mL	1 µg/mL (≈ 2.14 µM)	0.25 µg/mL (≈ 0.536 µM)	–	–	–	–	–	–	–	–	–
C[C@@H](O)[C@H](NC(=O)c1ccc(C#Cc2ccc(/C=N/N3CCOCC3)cc2)cc1)C(=O)NO	> 64 µg/mL	2	1 µg/mL (≈ 2.22 µM)	> 64 µg/mL	1 µg/mL (≈ 2.22 µM)	0.25 µg/mL (≈ 0.555 µM)	4.98 h	7.04 mL/min/kg	6.1 h	1.79 µL/min/mg	7.16 µL/min/mg	4.53 µL/min/mg	6.76 mL/min/kg	8.15 mL/min/kg	7.9 h
